Six compounds from US12384756B2, “Piperidinedione derivatives” (INNOCURE THERAPEUTICS, INC., priority 2021, dated 2025) can be followed below.

Like-named read-outs stand apart in the source and are kept apart here. Some results are limits rather than exact numbers.

Assay type in all cases: cell-based
The test system of test [1] is Human breast cancer cell line [MDA-MB-231]. The experiment in a line: Anti-proliferative activity (WST-8) of BRD4 targeted PROTAC in MDA-MB-231. The conditions noted are these: Homo sapiens, MDA-MB-231, 72 hours. Here is the method: (§1) Human breast cancer cell line [MDA-MB-231] was cultured in RPMI medium with 10% petal bovine serum, penicillin [100 U/ml] and streptomycin [[…]]. The synthesized compound was prepared as a stock solution of 10 mM or 50 mM dissolved in DMSO [dimethyl sulfoxide], and it was sequentially diluted to treat the cell line.
In order to observe inhibition of cell growth, cells were aliquoted into concentrations of 5,000 cells/well at 96 well plates, and then were treated with samples prepared at various concentrations for 72 hours. The cell survival was calculated by steps of adding in each well […] of water soluble tetrazolium salt (WST-8) which produces formazon in response to dehydrogenase present in the electron transport chain in mitochondria, incubating for 2 hours, measuring the absorbance at 450 nm, and calculating by GraphicPad Prism 8.0 software.

Test [2] has as its target T1, BRD4 (Homo sapiens, UniProt O60885). The experiment in a line: BRD4 protein degradation by western blot in MDA-MB-231 cells. Further details: BRD4 expressed in cells; endogenous in cells; host or cells: MDA-MB-231. The conditions noted are these: MDA-MB-231, 24 hours; for DC50: 50% inhibition of protein expression, read-out: DC50 of BRD4-targeted PROTAC. Here is the method: as §1
To evaluate the PROTAC's degradation ability to BRD4 expressed in cells, the cells were aliquoted into a 6 well plate at a concentration of 5×10^5 cells/ml, and then the sample was treated for 24 hours. In order to conduct western blotting assay to confirm protein expression, the cell treated with the compound was treated for 30 minutes with 70 μL of RIPA buffer wherein protease inhibitor is added. Then, cell lysate was collected on ice using a scraper and centrifuged at 4° C. 15,000 rpm for 30 minutes to obtain a supernatant containing protein. Then, SDS-PAGE is conducted for 10 μg of protein per each sample, and the protein is transferred to a membrane. The protein is reacted with antibodies of anti-BRD4, anti-tubulin and anti-GAPDH at 4° C. for 16 hours, and then, reacted with secondary antibodies at room temperature for 1 hour. The protein expression is confirmed using SUPERSIGNAL™ WEST PICO PLUS chemiluminescence substrate and image analyzer. The protein expression was normalized based on the expression value of β-tublin or GAPDH. The amount of protein expression in each sample was measured in % based on the sample treated with 0.1% DMSO vehicle which was set to 100%. The amount of protein expression was quantified using the IMAGE J PROGRAM. The change in the amount of protein expression due to the treatment of compound (DC50: the concentration of compounds where the 50% inhibition of protein expression is achieved) was calculated using […] PRISM 8.0 software.

For test [3], the target named is T1, BRD4. The experiment in a line: BRD4 degradation by western blot in A549 cells. Set-up: BRD4 expressed in cells; endogenous in cells. As to the method:
The human lung cancer cell line A549 was purchased from the Korean Cell Line Bank.
5×10^5 cells were seeded for each well of the 6 well plate (SPL company), and the cells were cultured with a total of 1.5 mL of the culture medium volume. The cultured cells were treated with various concentrations (0 nM, 0.1 nM, 0.3 nM, 1 nM, 3 nM, 10 nM, 30 nM, 100 nM, 300 nM, 1000 nM, 3000 nM, 10000 nM) of PROTAC compound according to the present invention and cultured for 24 hours.
For cell lysis, a lysis buffer was added and cell lysate was obtained using a cell scraper.
Specifically, cells were treated with 70 μl of 1×RIPA buffer containing protease inhibitors. Cell lysate was collected on ice using a scraper and incubated for 30 minutes. Then, cells were centrifuged at 4° C. 15,000 rpm for 30 minutes to obtain a cell lysate.
The standard curve was obtained using BCA assay, and the protein mass in the lysate was quantified by substituting the standard curve. The mixture was incubated at 37° C. for 30 minutes using a sample solution of 1 μl and a BCA solution of 200 μl. The absorbance was measured at 562 nm. Samples were prepared by adding a sample buffer to reach 10 μg per well.
SDS-PAGE was conducted by setting a running time of 70 minutes at 110 V in a 4-15% Mini-PROTEAN TGX stain-free gel (15 wells). A transfer was conducted using a trans-blot turbo transfer system (Bio-rad). Blocking was conducted using a blocking-grade blocker (Bio-rad) for 1 hour. Then, it was washed with 1×TBS containing 0.1% tween 20, and reacted with anti-BRD4 antibody (1:3000) or anti-beta-tubulin antibody (1:3000) in bovine serum albumin as a primary antibody at 4° C. for 16 hours. After washing three times for 10 minutes with 1×TBS containing 0.1% tween 20, it was reacted with anti-rabbit antibody (1:10000) in the blotting-grade blocker as a secondary antibody at room temperature for 1 hour. Then, after washing three times for 10 minutes with 1×TBS containing 0.1% tween 20, detection was conducted with SUPERSIGNAL™ WEST PICO PLUS chemiluminescence substrate.
For result analysis, final blot data were obtained using an image analyzer (GE).
DC50^1): DC50 value is calculated by comparing band intensity with that of a sample which is not treated with a PROTAC compound as a controlled group.
DC50^2): DC50 value is calculated by comparing the band intensity relative to that of beta-tubulin with that of the controlled group.
(Immunoblotting shows a protein as a band on a membrane.)

Where [4] appears, read: WST-8, read-out: IC50 of BRD4-targeted PROTAC (cell proliferation).
[5] abbreviates: read-out: concentration at which cancer cell proliferation is effectively inhibited.
The mark [6] stands for this setting: A549, 24 hours; band intensity compared with untreated control; read-out: DC50 1).
[7] abbreviates: A549, 24 hours; band intensity relative to beta-tubulin compared with control; read-out: DC50 2).

`Cc1sc2c(c1C)C(c1ccc(Cl)cc1)=N[C@@H](CC(=O)Nc1ccc(OCCOCCOCCOCCNc3ccc4c(=O)n(C5CCC(=O)NC5=O)ncc4c3)cc1)c1nnc(C)n1-2` (stereo partly drawn) [Ex. 28, 2-((S)-4-(4-chlorophenyl)-2,3,9-trimethyl-6H-thieno[3,2-f][1,2,4]triazolo[4,3-a][1,4]diazepin-6-yl)-N-(4-(2-(2-(2-(2-((2-(2,6-dioxopiperidin-3-yl)-1-oxo-1,2-dihydrophthalazin-6-yl)amino)ethoxy)ethoxy)ethoxy)ethoxy)phenyl)acetamide]: the IC50 is 33.1 nM in test [1] (setting [4]) and less than 250 nM in test [1] (setting [5]). Moreover, the “BRD4 degradation (in words)” value on BRD4 [2] is on record as “effectively degraded”. Also, the DC50 turned out to be 3.3 nM on BRD4 [2], 25.3 nM on BRD4 [3] (setting [6]) and 299 nM on BRD4 [3] (setting [7]).

Take `Cc1sc2c(c1C)C(c1ccc(Cl)cc1)=N[C@@H](CC(=O)Nc1cccc(OCCOCCOCCNc3cccc4cnn(C5CCC(=O)NC5=O)c(=O)c34)c1)c1nnc(C)n1-2` (stereo partly drawn) [Ex. 23, 2-((S)-4-(4-chlorophenyl)-2,3,9-trimethyl-6H-thieno[3,2-f][1,2,4]triazolo[4,3-a][1,4]diazepin-6-yl)-N-(3-(2-(2-(2-((3-(2,6-dioxopiperidin-3-yl)-4-oxo-3,4-dihydrophthalazin-5-yl)amino)ethoxy)ethoxy)ethoxy)phenyl)acetamide]: the IC50 is 32.2 nM in test [1] (setting [4]) and less than 250 nM in test [1] (setting [5]). Also, at BRD4 [2], the “BRD4 degradation (in words)” value is “effectively degraded”. Besides, the values for the DC50 at BRD4 [2], on BRD4 [3] (setting [6]) and on BRD4 [3] (setting [7]) were 2.6 nM, 11.3 nM and 10.9 nM, respectively.

Turning to `Cc1sc2c(c1C)C(c1ccc(Cl)cc1)=N[C@@H](CC(=O)Nc1ccc(OCCOCCOCCOCCNc3cccc4cnn(C5CCC(=O)NC5=O)c(=O)c34)cc1)c1nnc(C)n1-2` (stereo partly drawn) [Ex. 27, 2-[(9S)-7-(4-chlorophenyl)-4,5,13-trimethyl-3-thia-1,8,11,12-tetraazatricyclo[8.3.0.0^2,6]trideca-2(6),4,7,10,12-pentaen-9-yl]-N-[4-(2-{2-[2-(2-{[3-(2,6-dioxopiperidin-3-yl)-4-oxo-3,4-dihydrophthalazin-5-yl]amino}ethoxy)ethoxy]ethoxy}ethoxy)phenyl]acetamide], the IC50 in test [1] (setting [4]) was determined as 640 nM. Also, the values for the 50% degradation concentration (DC50) on BRD4 [3] (setting [6]) and on BRD4 [3] (setting [7]) were 9.21 nM and 11.9 nM, respectively.

In the case of `Cc1sc2c(c1C)C(c1ccc(Cl)cc1)=N[C@@H](CC(=O)Nc1ccc(OCCOCCOCCNc3ccc4cnn(C5CCC(=O)NC5=O)c(=O)c4c3)cc1)c1nnc(C)n1-2` (stereo partly drawn) [Ex. 26, 2-((S)-4-(4-chlorophenyl)-2,3,9-trimethyl-6H-thieno[3,2-f][1,2,4]triazolo[4,3-a][1,4]diazepin-6-yl)-N-(4-(2-(2-(2-((3-(2,6-dioxopiperidin-3-yl)-4-oxo-3,4-dihydrophthalazin-6-yl)amino)ethoxy)ethoxy)ethoxy)phenyl)acetamide], in test [1] (setting [4]), the IC50 worked out at 126 nM. Besides, the 50% degradation concentration (DC50) at BRD4 [3] (setting [6]) is 22 nM; at BRD4 [3] (setting [7]), 568 nM.

On to `Cc1sc2c(c1C)C(c1ccc(Cl)cc1)=N[C@@H](CC(=O)NCOCCOCCOCCNc1cccc3cnn(C4CCC(=O)NC4=O)c(=O)c13)c1nnc(C)n1-2` (stereo partly drawn) [Ex. 21, 2-((S)-4-(4-chlorophenyl)-2,3,9-trimethyl-6H-thieno[3,2-f][1,2,4]triazolo[4,3-a][1,4]diazepin-6-yl)-N-((2-(2-(2-((3-(2,6-dioxopiperidin-3-yl)-4-oxo-3,4-dihydrophthalazin-5-yl)amino)ethoxy)ethoxy)ethoxy)methyl)acetamide], for which the DC50 was 1600 nM on BRD4 [3] (setting [6]) and 242 nM on BRD4 [3] (setting [7]).

As to `Cc1sc2c(c1C)C(c1ccc(Cl)cc1)=N[C@@H](CC(=O)Nc1ccc(OCCOCCOCCNc3ccc4c(=O)n(C5CCC(=O)NC5=O)ncc4c3)cc1)c1nnc(C)n1-2` (stereo partly drawn) [Ex. 25, 2-((S)-4-(4-chlorophenyl)-2,3,9-trimethyl-6H-thieno[3,2-f][1,2,4]triazolo[4,3-a][1,4]diazepin-6-yl)-N-(4-(2-(2-(2-((2-(2,6-dioxopiperidin-3-yl)-1-oxo-1,2-dihydrophthalazin-6-yl)amino)ethoxy)ethoxy)ethoxy)phenyl)acetamide], in test [1] (setting [4]), the IC50 came out at 232 nM. Besides, the 50% degradation concentration (DC50) stood at 56.9 nM at BRD4 [3] (setting [6]) and 49.6 nM at BRD4 [3] (setting [7]).

The DC50 is the concentration at which degradation of the target reaches its halfway point.
